Data from the supplement of paper PMC6045584.
± gives the standard deviation of the averaged measurements.

Tests used:
CANERTINIB [1] = compound: T1, C=CC(=O)Nc1cc2c(Nc3ccc(F)c(Cl)c3)ncnc2cc1OCCCN1CCOCC1 [CANERTINIB]; test: surviving fraction relative to DMSO-only wells; higher = less growth inhibition; conditions: exposure time: 5 days
Method in brief: (§1)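 Viability was determined by CellTiter-Glo luminescence, expressed as surviving fraction normalised to the median of DMSO-only wells. The cells were log-phase tumour cell lines seeded at 250–500 per well in 384-well plates and, after 24 hours, exposed continuously for five days to inhibitors at 0.5, 1, 5, 10, 50, 100, 500 and 1000 nM. Three screens per line were run, keeping only lines with replicate Pearson r >0.7 and median Z' >0.3.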

SNX-5422 [2] = compound: T2, CC1(C)CC(=O)c2c(C(F)(F)F)nn(-c3ccc(C(N)=O)c(N[C@H]4CC[C@H](OC(=O)CN)CC4)c3)c2C1 [SNX-5422]; test: as above; conditions: exposure time: 5 days
Method in brief: as §1

SAPACITABINE [3] = compound: T3, CCCCCCCCCCCCCCCC(=O)Nc1ccn([C@@H]2O[C@H](CO)[C@@H](O)[C@@H]2C#N)c(=O)n1 [SAPACITABINE]; test: as above; conditions: exposure time: 5 days
Method in brief: as §1

BI-2536 [4] = compound: T4, CC[C@@H]1C(=O)N(C)c2cnc(Nc3ccc(C(=O)NC4CCN(C)CC4)cc3OC)nc2N1C1CCCC1 [BI-2536]; test: as above; conditions: exposure time: 5 days
Method in brief: as §1

AFATINIB [5] = compound: T5, CN(C)C/C=C/C(=O)Nc1cc2c(Nc3ccc(F)c(Cl)c3)ncnc2cc1O[C@H]1CCOC1 [AFATINIB]; test: as above; conditions: exposure time: 5 days
Method in brief: as §1

MDV3100 [6] = compound: T6, CNC(=O)c1ccc(N2C(=S)N(c3ccc(C#N)c(C(F)(F)F)c3)C(=O)C2(C)C)cc1F [MDV3100]; test: as above; conditions: exposure time: 5 days
Method in brief: as §1

[7] = compound: Cn1cc(C2=Nc3cc(NC(=O)C(N)C4CCCCC4)cc4c3C2=CNNC4=O)cn1; test: as above; conditions: exposure time: 5 days
Method in brief: as §1

TIOGUANINE [8] = compound: T7, Nc1nc2[nH]cnc2c(=S)[nH]1 [TIOGUANINE]; test: as above; conditions: exposure time: 5 days
Method in brief: as §1

CANERTINIB [9] = compound: T1, CANERTINIB; test: area under dose-response curve of surviving fraction (unscaled, Aref=0) (surviving fraction x log10(nM)); higher = more resistant; conditions: exposure time: 5 days; dose range 0.5-1000 nM
Method in brief: (§2)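 Inhibitor was applied to tumour cell lines at eight concentrations (0.5 to 1000 nM) for five days in 384-well plates. Luminescence from CellTiter-Glo, scaled to DMSO-only wells, gave surviving fractions in three screens per line, and these were fitted by 3-parameter logistic regression with the drc R package. The area under the curve is an unscaled activity area. Aref was 0, and dose was on a log10 scale.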

SNX-5422 [10] = compound: T2, SNX-5422; test: as above; conditions: exposure time: 5 days; dose range 0.5-1000 nM
Method in brief: as §2

SAPACITABINE [11] = compound: T3, SAPACITABINE; test: as above; conditions: exposure time: 5 days; dose range 0.5-1000 nM
Method in brief: as §2

BI-2536 [12] = compound: T4, BI-2536; test: as above; conditions: exposure time: 5 days; dose range 0.5-1000 nM
Method in brief: as §2

AFATINIB [13] = compound: T5, AFATINIB; test: as above; conditions: exposure time: 5 days; dose range 0.5-1000 nM
Method in brief: as §2

[14] = compound: Cn1cc(C2=Nc3cc(NC(=O)C(N)C4CCCCC4)cc4c3C2=CNNC4=O)cn1; test: as above; conditions: exposure time: 5 days; dose range 0.5-1000 nM
Method in brief: as §2

TIOGUANINE [15] = compound: T7, TIOGUANINE; test: as above; conditions: exposure time: 5 days; dose range 0.5-1000 nM
Method in brief: as §2

MDV3100 [16] = compound: T6, MDV3100; test: as above; conditions: exposure time: 5 days; dose range 0.5-1000 nM
Method in brief: as §2

MDAMB134 BREAST was tested, and the surviving fraction (CANERTINIB [1]; 0.5 nM) was 0.622 ± 0.012, the surviving fraction (CANERTINIB [1]; 1 nM) was 0.659 ± 0.074 and the surviving fraction (CANERTINIB [1]; 5 nM) was 0.562 ± 0.0064. The surviving fraction (CANERTINIB [1]; 10 nM) was 0.577 ± 0.0092, the surviving fraction (CANERTINIB [1]; 50 nM) was 0.767 ± 0.12 and the surviving fraction (CANERTINIB [1]; 100 nM) was 0.831 ± 0.022. It also gave a surviving fraction (CANERTINIB [1]; 500 nM) of 0.868 ± 0.066, a surviving fraction (CANERTINIB [1]; 1000 nM) of 0.718 ± 0.016 and a surviving fraction (SNX-5422 [2]; 0.5 nM) of 0.902 ± 0.096. The surviving fraction (SNX-5422 [2]; 1 nM) was 1.17 ± 0.23, the surviving fraction (SNX-5422 [2]; 5 nM) was 0.892 ± 0.26 and the surviving fraction (SNX-5422 [2]; 10 nM) was 0.956 ± 0.052. For the same test system, the surviving fraction (SNX-5422 [2]; 50 nM) was 0.789 ± 0.098, the surviving fraction (SNX-5422 [2]; 100 nM) was 0.884 ± 0.036 and the surviving fraction (SNX-5422 [2]; 500 nM) was 0.543 ± 0.0057. For the same test system, the surviving fraction (SNX-5422 [2]; 1000 nM) was 0.54 ± 0.12, the surviving fraction (SAPACITABINE [3]; 0.5 nM) was 0.689 ± 0.09 and the surviving fraction (SAPACITABINE [3]; 1 nM) was 0.627 ± 0.083. For the same test system, the surviving fraction (SAPACITABINE [3]; 5 nM) was 0.65 ± 0.046, the surviving fraction (SAPACITABINE [3]; 10 nM) was 0.7515 ± 0.0035 and the surviving fraction (SAPACITABINE [3]; 50 nM) was 0.785 ± 0.036. The surviving fraction (SAPACITABINE [3]; 100 nM) was 0.821 ± 0.11, the surviving fraction (SAPACITABINE [3]; 500 nM) was 0.817 ± 0.058 and the surviving fraction (SAPACITABINE [3]; 1000 nM) was 0.916 ± 0.054. It also gave a surviving fraction (BI-2536 [4]; 0.5 nM) of 0.944 ± 0.11, a surviving fraction (BI-2536 [4]; 1 nM) of 0.699 ± 0.069 and a surviving fraction (BI-2536 [4]; 5 nM) of 0.792 ± 0.03. For the same test system, the surviving fraction (BI-2536 [4]; 10 nM) was 0.835 ± 0.034, the surviving fraction (BI-2536 [4]; 50 nM) was 1.2 ± 0.058 and the surviving fraction (BI-2536 [4]; 100 nM) was 1.101 ± 0.0092. It also gave a surviving fraction (BI-2536 [4]; 500 nM) of 0.788 ± 0.0092, a surviving fraction (BI-2536 [4]; 1000 nM) of 0.644 ± 0.048 and a surviving fraction (AFATINIB [5]; 0.5 nM) of 1.07 ± 0.046. For the same test system, the surviving fraction (AFATINIB [5]; 1 nM) was 0.997 ± 0.15, the surviving fraction (AFATINIB [5]; 5 nM) was 1.24 ± 0.25 and the surviving fraction (AFATINIB [5]; 10 nM) was 0.967 ± 0.15. It also gave a surviving fraction (AFATINIB [5]; 50 nM) of 1.09 ± 0.078, a surviving fraction (AFATINIB [5]; 100 nM) of 0.886 ± 0.076 and a surviving fraction (AFATINIB [5]; 500 nM) of 0.741 ± 0.031. For the same test system, the surviving fraction (AFATINIB [5]; 1000 nM) was 0.725 ± 0.12, the surviving fraction (MDV3100 [6]; 0.5 nM) was 0.813 ± 0.09 and the surviving fraction (MDV3100 [6]; 1 nM) was 0.82 ± 0.1. The surviving fraction (MDV3100 [6]; 5 nM) was 0.894 ± 0.2, the surviving fraction (MDV3100 [6]; 10 nM) was 0.918 ± 0.0099 and the surviving fraction (MDV3100 [6]; 50 nM) was 1.06 ± 0.15. The surviving fraction (MDV3100 [6]; 100 nM) was 0.794 ± 0.033, the surviving fraction (MDV3100 [6]; 500 nM) was 1.17 ± 0.018 and the surviving fraction (MDV3100 [6]; 1000 nM) was 0.992 ± 0.25. It also gave a surviving fraction ([7]; 0.5 nM) of 0.9005 ± 0.0064, a surviving fraction ([7]; 1 nM) of 0.987 ± 0.062 and a surviving fraction ([7]; 5 nM) of 0.908 ± 0.092. The surviving fraction ([7]; 10 nM) was 0.855 ± 0.17, the surviving fraction ([7]; 50 nM) was 0.642 ± 0.067 and the surviving fraction ([7]; 100 nM) was 0.525 ± 0.14. For the same test system, the surviving fraction ([7]; 500 nM) was 0.442 ± 0.033, the surviving fraction ([7]; 1000 nM) was 0.505 ± 0.018 and the surviving fraction (TIOGUANINE [8]; 0.5 nM) was 0.993 ± 0.11. It also gave a surviving fraction (TIOGUANINE [8]; 1 nM) of 1.04 ± 0.12, a surviving fraction (TIOGUANINE [8]; 5 nM) of 0.909 ± 0.017 and a surviving fraction (TIOGUANINE [8]; 10 nM) of 0.928 ± 0.11. It also gave a surviving fraction (TIOGUANINE [8]; 50 nM) of 1.04 ± 0.0028, a surviving fraction (TIOGUANINE [8]; 100 nM) of 1.1 ± 0.17 and a surviving fraction (TIOGUANINE [8]; 500 nM) of 0.88 ± 0.049. The surviving fraction (TIOGUANINE [8]; 1000 nM) was 0.858 ± 0.073, the “area under dose-response curve” value (CANERTINIB [9]) was 2.36 and the “area under dose-response curve” value (SNX-5422 [10]) was 2.8. The “area under dose-response curve” value (SAPACITABINE [11]) was 2.57, the “area under dose-response curve” value (BI-2536 [12]) was 2.89 and the “area under dose-response curve” value (AFATINIB [13]) was 3.16. For the same test system, the “area under dose-response curve” value [14] was 2.44 and the “area under dose-response curve” value (TIOGUANINE [15]) was 3.2.
Work on CCK81 LARGE INTESTINE yielded a surviving fraction (CANERTINIB [1]; 0.5 nM) of 0.778 ± 0.19, a surviving fraction (CANERTINIB [1]; 1 nM) of 0.874 ± 0.16 and a surviving fraction (CANERTINIB [1]; 5 nM) of 0.928 ± 0.13. For the same test system, the surviving fraction (CANERTINIB [1]; 10 nM) was 0.816 ± 0.18, the surviving fraction (CANERTINIB [1]; 50 nM) was 0.186 ± 0.03 and the surviving fraction (CANERTINIB [1]; 100 nM) was 0.0957 ± 0.019. The surviving fraction (CANERTINIB [1]; 500 nM) was 0.0373 ± 0.0083, the surviving fraction (CANERTINIB [1]; 1000 nM) was 0.0263 ± 0.0059 and the surviving fraction (SAPACITABINE [3]; 0.5 nM) was 0.972 ± 0.18. For the same test system, the surviving fraction (SAPACITABINE [3]; 1 nM) was 0.94 ± 0.2, the surviving fraction (SAPACITABINE [3]; 5 nM) was 0.813 ± 0.13 and the surviving fraction (SAPACITABINE [3]; 10 nM) was 0.7 ± 0.13. It also gave a surviving fraction (SAPACITABINE [3]; 50 nM) of 0.427 ± 0.12, a surviving fraction (SAPACITABINE [3]; 100 nM) of 0.482 ± 0.041 and a surviving fraction (SAPACITABINE [3]; 500 nM) of 0.456 ± 0.047. For the same test system, the surviving fraction (SAPACITABINE [3]; 1000 nM) was 0.47 ± 0.056, the surviving fraction (MDV3100 [6]; 0.5 nM) was 0.843 ± 0.11 and the surviving fraction (MDV3100 [6]; 1 nM) was 0.8 ± 0.19. The surviving fraction (MDV3100 [6]; 5 nM) was 0.717 ± 0.076, the surviving fraction (MDV3100 [6]; 10 nM) was 0.728 ± 0.046 and the surviving fraction (MDV3100 [6]; 50 nM) was 0.75 ± 0.091. It also gave a surviving fraction (MDV3100 [6]; 100 nM) of 0.757 ± 0.068, a surviving fraction (MDV3100 [6]; 500 nM) of 0.79 ± 0.03 and a surviving fraction (MDV3100 [6]; 1000 nM) of 0.728 ± 0.06. The “area under dose-response curve” value (CANERTINIB [9]) was 1.68, the “area under dose-response curve” value (SAPACITABINE [11]) was 2.16 and the “area under dose-response curve” value (MDV3100 [16]) was 2.49.
